The values that follow are results of earlier work, collected in patent publication EP3142678B1, “USE OF CRANBERRY PROANTHOCYANIDINS WITH HERBAL COMPONENTS FOR TREATING AND PREVENTING URINARY TRACT INFECTIONS” (Specchiasol S.r.l., priority 2014, dated 2015).

Molecules are shown by their SMILES. Like-named read-outs stand apart in the source and are kept apart here.

This data set concerns slime-producing uropathogenic Escherichia coli strains. Conditions: for percentage of residual slime relative to the control: range over four strains; for reduced biofilms: fosfomycin 2000 mg/l.

Turning to `CC(=O)N[C@@H](CS)C(=O)O` [NAC, N-Acetylcysteine], the “percentage of residual slime relative to the control” value (0.007 mg/ml of NAC) is on record as 62.5-100% and the “percentage of residual slime relative to the control” value (8 mg/ml of NAC) is 26.2-64.1%. In addition, the “remaining exopolysaccharide matrix, of the amount found with the untreated control” value (pre-formed biofilms, NAC at the highest concentrations used) was 25-68%.

`C[C@@H]1O[C@@H]1P(=O)(O)O` [fosfomycin]: the reduced biofilms was 40-57% (initial (5 h) biofilms) and 41-49% (mature (48 h) biofilms).
